In ChEMBL document CHEMBL1770088, “Orally bioavailable imidazoazepanes as calcitonin gene-related peptide (CGRP) receptor antagonists: discovery of MK-2918” (Bioorg Med Chem Lett, 2011):
Values after ≈ are worked out from the molar mass of the structure shown.

What was measured:
[1] = target: T1, Calcitonin gene-related peptide type 1 receptor (Homo sapiens, UniProt O60894+Q16602); experiment: Antagonist activity at CGRP receptor assessed as inhibition of CGRP-stimulated cAMP production by cell based assay in presence of 50% human serum; type: functional
[2] = target: T1, Calcitonin gene-related peptide type 1 receptor; experiment: Displacement of [125I]-CGRP from human recombinant CGRP receptor
[3] = target: T1, Calcitonin gene-related peptide type 1 receptor; experiment: Antagonist activity at CGRP receptor assessed as inhibition of CGRP-stimulated cAMP production by cell based assay; type: functional
Homo sapiens = organism: Homo sapiens; experiment: Ratio of IC50 for inhibition of [35S]-MK-499 binding to human ERG channel to IC50 for inhibition of cell based CGRP-stimulated cAMP production
[4] = Oral bioavailability in rat at 10 mg/kg, po administered as a suspension in 1% aqueous methylcellulose; type: ADME, organism-based; conditions: in vivo
[5] = Aqueous solubility of the compound at pH 3; type: physicochemical; conditions: buffer
[6] = Apparent permeability of compound; type: ADME; conditions: not told
Rhesus monkey [7] = experiment: Oral bioavailability in rhesus monkey assessed as N-((6S,9R)-6-(2,3-difluorophenyl)-3-(2-hydroxypropan-2-yl)-6,7,8,9-tetrahydro-5H-imidazo[1,2-a]azepin-9-yl)-2'-oxo-1',2'-dihydrospiro[piperidine-4,4'-pyrido[2,3-d][1,3]oxazine]-1-carboxamide at 10 mg/kg, po or iv normalized to AUC; type: ADME, organism-based, Macaca mulatta; conditions: in vivo
[8] = Oral bioavailability in dog at 10 mg/kg, po; type: ADME, organism-based, Canis lupus familiaris; conditions: in vivo
Canis familiaris = experiment: Oral bioavailability in dog assessed as N-((6S,9R)-6-(2,3-difluorophenyl)-3-(2-hydroxypropan-2-yl)-6,7,8,9-tetrahydro-5H-imidazo[1,2-a]azepin-9-yl)-2'-oxo-1',2'-dihydrospiro[piperidine-4,4'-pyrido[2,3-d][1,3]oxazine]-1-carboxamide at 10 mg/kg, po or iv normalized to AUC; type: ADME, organism-based, Canis lupus familiaris; conditions: in vivo
Rattus norvegicus = experiment: Oral bioavailability in rat assessed as N-((6S,9R)-6-(2,3-difluorophenyl)-3-(2-hydroxypropan-2-yl)-6,7,8,9-tetrahydro-5H-imidazo[1,2-a]azepin-9-yl)-2'-oxo-1',2'-dihydrospiro[piperidine-4,4'-pyrido[2,3-d][1,3]oxazine]-1-carboxamide at 10 mg/kg, po or iv normalized to AUC; type: ADME, organism-based; conditions: in vivo
[9] = Oral bioavailability in rhesus monkey at 10 mg/kg, po; type: ADME, organism-based, Macaca mulatta; conditions: in vivo
[10] = Oral bioavailability in rat at 10 mg/kg, po administered as a solution in 1:1 imwitor:tween; type: ADME, organism-based; conditions: in vivo
Rhesus monkey [11] = experiment: Inhibition of capsaicin-induced dermal vasodilation in orally dosed rhesus monkey; type: functional, Macaca mulatta
[12] = Aqueous solubility of the compound at pH 7.4; conditions: buffer

T1 sequence (Q16602 whole entry, one chain of several): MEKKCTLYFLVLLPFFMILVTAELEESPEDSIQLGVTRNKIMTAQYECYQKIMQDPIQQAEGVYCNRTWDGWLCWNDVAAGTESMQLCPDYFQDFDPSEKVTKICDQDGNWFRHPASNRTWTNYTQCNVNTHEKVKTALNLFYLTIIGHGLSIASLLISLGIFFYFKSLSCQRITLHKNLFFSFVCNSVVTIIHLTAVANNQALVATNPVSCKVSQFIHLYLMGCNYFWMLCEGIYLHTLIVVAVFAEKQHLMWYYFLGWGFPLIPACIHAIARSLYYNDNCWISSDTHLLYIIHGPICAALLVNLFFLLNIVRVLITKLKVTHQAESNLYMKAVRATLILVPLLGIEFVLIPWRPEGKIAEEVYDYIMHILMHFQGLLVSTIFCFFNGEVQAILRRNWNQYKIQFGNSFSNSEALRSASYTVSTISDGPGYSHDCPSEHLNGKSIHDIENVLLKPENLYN

## Cc1cn2c(n1)[C@H](NC(=O)N1CCC(n3c(=O)[nH]c4ncccc43)CC1)CC[C@@H](c1cccc(F)c1F)C2
[1]
  IC50: 28 nM
[2]
  Ki: 4 nM
[3]
  IC50: 8.7 nM

## O=C(N[C@@H]1CC[C@@H](c2cccc(F)c2F)Cn2c(CC(F)(F)F)cnc21)N1CCC2(CC1)C(=O)Nc1ncccc12
[1]
  IC50: 4 nM
[2]
  Ki: 0.61 nM
[3]
  IC50: 0.94 nM
Homo sapiens
  Ratio IC50: 9300
[4]
  bioavailability: 47%

## CN(C)C(=O)c1cnc2n1C[C@H](c1cccc(F)c1F)CC[C@H]2NC(=O)N1CCC(n2c(=O)[nH]c3ncccc32)CC1
[1]
  IC50: 7.4 nM
[2]
  Ki: 2.8 nM
[3]
  IC50: 4.1 nM

## COCc1cnc2n1C[C@H](c1cccc(F)c1F)CC[C@H]2NC(=O)N1CCC2(CC1)OC(=O)Nc1ncccc12
[1]
  IC50: 1.7 nM
[2]
  Ki: 0.14 nM
[3]
  IC50: 0.61 nM
Homo sapiens
  Ratio IC50: 8900
[4]
  bioavailability: 15%

## CC1(c2cnc3n2C[C@H](c2cccc(F)c2F)CC[C@H]3NC(=O)N2CCC3(CC2)OC(=O)Nc2ncccc23)CCCO1 (some centres not stated)
[1]
  IC50: 0.76 nM
[2]
  Ki: 0.036 nM
[3]
  IC50: 0.21 nM
Homo sapiens
  Ratio IC50: 17000
[4]
  bioavailability: 8%

## O=C(N[C@@H]1CC[C@@H](c2cccc(F)c2F)Cn2cc(CO)nc21)N1CCC(n2c(=O)[nH]c3ncccc32)CC1
[1]
  IC50: 26 nM
[2]
  Ki: 3.2 nM
[3]
  IC50: 12 nM

## O=C(N[C@@H]1CC[C@@H](c2cccc(F)c2F)Cn2ccnc21)N1CCC(n2c(=O)[nH]c3ncccc32)CC1
[1]
  IC50: 19 nM
[2]
  Ki: 3.1 nM
[3]
  IC50: 6.7 nM

## O=C1Nc2ncccc2C2(CCN(C(=O)N[C@@H]3CC[C@@H](c4cccc(F)c4F)Cn4c(CC(F)(F)F)nnc43)CC2)O1
[1]
  IC50: 1.3 nM
[2]
  Ki: 0.19 nM
[3]
  IC50: 0.83 nM
Homo sapiens
  Ratio IC50: > 36000
[4]
  bioavailability: < 1%

## O=C(N[C@@H]1CC[C@@H](c2cccc(F)c2F)Cn2c(C3(C(F)(F)F)CC3)cnc21)N1CCC2(CC1)C(=O)Nc1ncccc12
[1]
  IC50: 8.6 nM
[2]
  Ki: 0.63 nM
[3]
  IC50: 1.4 nM
Homo sapiens
  Ratio IC50: 880

## COC(C)(C)c1cnc2n1C[C@H](c1cccc(F)c1F)CC[C@H]2NC(=O)N1CCC2(CC1)OC(=O)Nc1ncccc12
[5]
  solubility: 1100 µg/mL (≈ 1890 µM)
[6]
  Papp: 24 ×10⁻⁶ cm/s
[1]
  IC50: 0.63 nM
Rhesus monkey [7]
  F: 29%
[2]
  Ki: 0.05 nM
[3]
  IC50: 0.24 nM
[8]
  bioavailability: 10%
Homo sapiens
  Ratio IC50: 32000
Canis familiaris
  F: 14%
Rattus norvegicus
  F: 26%
[4]
  bioavailability: 16%
[9]
  bioavailability: 5%

## COC(C)(C)c1cnc2n1C[C@H](c1cccc(F)c1F)CC[C@H]2NC(=O)N1CCC(n2c(=O)[nH]c3ncccc32)CC1
[1]
  IC50: 0.61 nM
[2]
  Ki: 0.04 nM
[3]
  IC50: 0.31 nM

## CC(C)c1cnc2n1C[C@H](c1cccc(F)c1F)CC[C@H]2NC(=O)N1CCC(n2c(=O)[nH]c3ncccc32)CC1
[1]
  IC50: 3.2 nM
[2]
  Ki: 0.69 nM
[3]
  IC50: 0.62 nM

## CCOC(C)(C)c1cnc2n1C[C@H](c1cccc(F)c1F)CC[C@H]2NC(=O)N1CCC2(CC1)OC(=O)Nc1ncccc12
[1]
  IC50: 2.9 nM
[2]
  Ki: 0.05 nM
[3]
  IC50: 0.32 nM
Homo sapiens
  Ratio IC50: 23000

## COC(C)(C)c1cnc2n1C[C@H](c1cccc(F)c1F)CC[C@H]2NC(=O)N1CCC2(CC1)C(=O)Nc1ncccc12
[10]
  bioavailability: 5%
[1]
  IC50: 1.4 nM
[2]
  Ki: 0.4 nM
[3]
  IC50: 0.82 nM
Homo sapiens
  Ratio IC50: 9700

## CCC(CC)(OC)c1cnc2n1C[C@H](c1cccc(F)c1F)CC[C@H]2NC(=O)N1CCC2(CC1)OC(=O)Nc1ncccc12
[1]
  IC50: 0.42 nM
[2]
  Ki: 0.039 nM
[3]
  IC50: 0.25 nM
Homo sapiens
  Ratio IC50: 3200

## O=C(N[C@@H]1CC[C@@H](c2cccc(F)c2F)Cn2c(CC(F)(F)F)cnc21)N1CCC(n2c(=O)[nH]c3ncccc32)CC1
[6]
  Papp: 24 ×10⁻⁶ cm/s
[1]
  IC50: 2.6 nM
[2]
  Ki: 0.14 nM
[3]
  IC50: 0.37 nM
[4]
  bioavailability: 35%

## O=C(N[C@@H]1CC[C@@H](c2cccc(F)c2F)Cn2c(-c3nccs3)cnc21)N1CCC(n2c(=O)[nH]c3ncccc32)CC1
[1]
  IC50: 64 nM
[2]
  Ki: 1.1 nM
[3]
  IC50: 3.6 nM

## O=C1Nc2ncccc2C2(CCN(C(=O)N[C@@H]3CC[C@@H](c4cccc(F)c4F)Cn4c(CC(F)(F)F)cnc43)CC2)O1
[1]
  IC50: 2 nM
[2]
  Ki: 0.07 nM
[3]
  IC50: 0.41 nM
[8]
  bioavailability: 28%
[4]
  bioavailability: 33%
[9]
  bioavailability: 17%
Rhesus monkey [11]
  EC90: 1000 nM

## Cc1cnc2n1C[C@H](c1cccc(F)c1F)CC[C@H]2NC(=O)N1CCC(n2c(=O)[nH]c3ncccc32)CC1
[1]
  IC50: 12 nM
[2]
  Ki: 2.2 nM
[3]
  IC50: 4.1 nM

## CC(C)(OCC(F)(F)F)c1cnc2n1C[C@H](c1cccc(F)c1F)CC[C@H]2NC(=O)N1CCC2(CC1)OC(=O)Nc1ncccc12
[1]
  IC50: 13 nM
[2]
  Ki: 0.16 nM
[3]
  IC50: 0.65 nM
Homo sapiens
  Ratio IC50: 6100

## O=C(N[C@@H]1CC[C@@H](c2cccc(F)c2F)Cn2c(CO)cnc21)N1CCC(n2c(=O)[nH]c3ncccc32)CC1
[1]
  IC50: 12 nM
[2]
  Ki: 2.5 nM
[3]
  IC50: 7.9 nM

## O=C(N[C@@H]1CC[C@@H](c2cccc(F)c2F)Cn2cc(CC(F)(F)F)nc21)N1CCC(n2c(=O)[nH]c3ncccc32)CC1
[1]
  IC50: 33 nM
[2]
  Ki: 3.9 nM
[3]
  IC50: 7.2 nM

## O=C(N[C@@H]1CC[C@@H](c2cccc(F)c2F)Cn2c(-c3ccccc3)cnc21)N1CCC(n2c(=O)[nH]c3ncccc32)CC1
[1]
  IC50: 34 nM
[2]
  Ki: 1.1 nM
[3]
  IC50: 2.6 nM

## COCc1cnc2n1C[C@H](c1cccc(F)c1F)CC[C@H]2NC(=O)N1CCC2(CC1)C(=O)Nc1ncccc12
[10]
  bioavailability: 21%
[1]
  IC50: 4.3 nM
[2]
  Ki: 0.62 nM
[3]
  IC50: 1.7 nM
Homo sapiens
  Ratio IC50: 9500

## O=C(N[C@@H]1CC[C@@H](c2cccc(F)c2F)Cn2c(CC(F)(F)F)nnc21)N1CCC2(CC1)C(=O)Nc1ncccc12
[10]
  bioavailability: 6%
[1]
  IC50: 2.7 nM
[2]
  Ki: 0.48 nM
[3]
  IC50: 2.3 nM
Homo sapiens
  Ratio IC50: > 13000

## CNCCc1cnc2n1C[C@H](c1cccc(F)c1F)CC[C@H]2NC(=O)N1CCC(n2c(=O)[nH]c3ncccc32)CC1
[1]
  IC50: 15 nM
[2]
  Ki: 5.7 nM
[3]
  IC50: 12 nM

## O=C(N[C@@H]1CC[C@@H](c2cccc(F)c2F)CN(CC(F)(F)F)C1=O)N1CCC(n2c(=O)[nH]c3ncccc32)CC1 [TELCAGEPANT]
[6]
  Papp: 21 ×10⁻⁶ cm/s
[12]
  solubility: 30 µg/mL (≈ 53 µM)

## COCc1cnc2n1C[C@H](c1cccc(F)c1F)CC[C@H]2NC(=O)N1CCC(n2c(=O)[nH]c3ncccc32)CC1
[1]
  IC50: 1.9 nM
[2]
  Ki: 0.38 nM
[3]
  IC50: 0.63 nM

## O=C(N[C@@H]1CC[C@@H](c2cccc(F)c2F)Cn2c(C3CC3)nnc21)N1CCC(n2c(=O)[nH]c3ncccc32)CC1
[6]
  Papp: 4 ×10⁻⁶ cm/s
[1]
  IC50: 2.4 nM
[2]
  Ki: 1 nM
[3]
  IC50: 1.6 nM
[4]
  bioavailability: 2%

## CC(C)(O)c1cnc2n1C[C@H](c1cccc(F)c1F)CC[C@H]2NC(=O)N1CCC2(CC1)OC(=O)Nc1ncccc12
[1]
  IC50: 1.5 nM
[2]
  Ki: 0.29 nM
[3]
  IC50: 0.86 nM
Homo sapiens
  Ratio IC50: 23000
[4]
  bioavailability: 3%
Rhesus monkey [11]
  EC90: 330 nM
